Experimental data from PMC6792352, “Limited Chemical Structural Diversity Found to Modulate Thyroid Hormone Receptor in the Tox21 Chemical Library” (Environmental Health Perspectives, 2019).
Structures can show the parent of a compound that is named as a salt.

assay: in vitro; conditions: rat, gh3-tre-luc cells, AC50 (uM) modified / 1000

SMILES	CC50 at 24 h [µM]
COc1ccc(C[C@H](C)NC[C@@H](O)c2ccc(O)c(NC=O)c2)cc1 [Formoterol hemifumarate dihydrate]	> 50
CC1(C)S[C@@H]2[C@H](N)C(=O)N2[C@H]1C(=O)O [6-Aminopenicillanic acid]	> 20
CC12CCC(CC1)C(C)(C)O2 [1,8-Cineol]	> 90
CC1=Nc2ccccc2C1(C)C [2,3,3-Trimethylindolenine]	> 90
CN(C)CCn1nnnc1SCC1=C(C(=O)O)N2C(=O)[C@@H](NC(=O)Cc3csc(N)n3)[C@H]2SC1 [Cefotiam hydrochloride]	> 20
COc1ccc(S(=O)(=O)N2c3ccc(Cl)cc3[C@](O)(c3ccccc3Cl)[C@@H]2C(=O)N2CCC[C@H]2C(N)=O)cc1OC [Relcovaptan]	> 50
C=CC(=O)NCNC(=O)C=C [N,N'-Methylenebisacrylamide]	> 90
CC(=O)OC/C=C(\C)CCC=C(C)C [Geranyl acetate]	> 90
C[N+]1(C)CCC(=C(c2ccccc2)c2ccccc2)CC1 [Diphemanil methylsulfate]	> 20
CC(C(O)c1ccc(O)cc1)N1CCC(Cc2ccccc2)CC1 (stereo not drawn) [Ifenprodil]	19.6
CN1C(=O)C(O)N=C(c2ccccc2)c2cc(Cl)ccc21 (stereo not drawn) [Temazepam]	> 90
CC(CCCCN)C(C)(C)N (stereo not drawn) [Trimethylhexane-1,6-diamine]	> 200
COc1cc2c(cc1OC)-c1cc3ccc(OC)c(OC)c3c[n+]1CC2 [Palmatine chloride hydrate]	> 90
Cc1cccc(C)c1NC(=O)CC12CCCN1CCC2 [Pilsicainide]	> 50
CCC(C)N(C)C(=O)c1cc2ccccc2c(-c2ccccc2Cl)n1 (stereo not drawn) [PK 11195]	48.6
OC[C@@H](O)C(O)[C@@H](O)CO (stereo partly drawn) [Xylitol]	> 90
COc1cccc(Br)c1 [1-Bromo-3-methoxybenzene]	> 90
CC(C)[C@H](Nc1ccc(C(F)(F)F)cc1Cl)C(=O)OC(C#N)c1cccc(Oc2ccccc2)c1 (stereo partly drawn) [Fluvalinate]	> 90
O=C(O)CCCCCCCCCC(=O)O [Undecanedioic acid]	> 90
NCCS [Cysteamine hydrochloride]	> 50
NS(=O)(=O)c1cc2c(cc1Cl)NC(C(Cl)Cl)NS2(=O)=O (stereo not drawn) [Trichlormethiazide]	> 20
COC(=O)CCCCC(=O)O [Methyl hexanedioate]	> 90
CC(C)=O [Acetone]	> 90
CC1=C(C=O)C(C)(C)CCC1 [beta-Cyclocitral]	> 90
CC1(C)CC(N)CC(C)(CN)C1 (stereo not drawn) [Isophorone diamine]	> 90

SMILES	CC50 at 24 h [µM]
CC(C)(c1ccccc1)c1ccccc1 [2,2-Diphenylpropane]	> 90
COc1c(Cl)c(Cl)c(Cl)c(Cl)c1Cl [Pentachloroanisole]	> 90
CCCCC(CC)COC(C)=O (stereo not drawn) [2-Ethylhexyl acetate]	> 90
COC(C)CCO (stereo not drawn) [3-Methoxybutan-1-ol]	> 90
O=C(Nc1ccc2c(c1)Cc1ccccc1-2)C(F)(F)F [N-(2-Fluorenyl)-2,2,2-trifluoroacetamide]	> 90
O=C(O)c1cn(-c2ccc(F)cc2)c2cc(N3CCNCC3)c(F)cc2c1=O [Sarafloxacin hydrochloride]	> 50
SCCOCCOCCS [2,2'-[Ethane-1,2-diylbis(oxy)]diethanethiol]	> 90
O=C(O)c1cc(Cl)cc(Cl)c1O [3,5-Dichlorosalicylic acid]	> 90
CNCC[C@@H](Oc1ccccc1C)c1ccccc1 [Atomoxetine hydrochloride]	44.9
CNC(=O)Oc1cccc2c1OC(C)(C)C2 [Carbofuran]	> 90
CC(=O)CC(c1ccccc1)c1c(O)c2ccccc2oc1=O (stereo not drawn) [Warfarin]	> 90
C=C(C)C(=O)OCCC[Si](OC)(OC)OC [3-(Trimethoxysilyl)propyl methacrylate]	> 90
O=C1c2ccccc2CCc2ccccc21 [Dibenzosuberone]	> 90
CCCCN(CCCC)CC(O)c1cc(Cl)cc2c1-c1ccc(Cl)cc1/C2=C/c1ccc(Cl)cc1 (stereo not drawn) [Lumefantrine]	38.5
NC[C@H](O)c1ccc(O)c(O)c1 [Norepinephrine]	57.7
C[N+]1(CCC(C(N)=O)(c2ccccc2)c2ccccc2)CCCCC1 [Fenpiverinium bromide]	> 50
CC=C(C)C#N [2-Methyl-2-butenenitrile]	> 90
CC(C)CC(C)(C)C [2,2,4-Trimethylpentane]	> 100
CNC(=O)Oc1ccccc1OC(C)C [Propoxur]	> 90
COC(=O)c1c(C)cc(O)c(C)c1O [Methyl 2,4-dihydroxy-3,6-dimethylbenzoate]	> 90
CCCCN(CCCC)CCCOC(=O)c1ccc(N)cc1 [Butacaine]	> 20
C[C@@H]1C(=O)C[C@H]2[C@]3(C)CC[C@@]2([C@H](C)C(=O)O)C(=O)[C@H]13 [Santonic acid]	> 50
CN1CCCC(CN2c3ccccc3Sc3ccccc32)C1 (stereo not drawn) [Pecazine]	16.4
CC(=O)Oc1ccc2c(c1)CC[C@@H]1[C@@H]2CC[C@]2(C)[C@@H](O)CC[C@@H]12 [Estradiol acetate]	22.3
CCCCOC(=O)[C@@H](C)Oc1ccc(Oc2ccc(C(F)(F)F)cn2)cc1 [Fluazifop-P-butyl]	> 90

SMILES	CC50 at 24 h [µM]
CO[Si](CCCS)(OC)OC [3-Mercaptopropyltrimethoxysilane]	> 90
Oc1ccc(C2(c3ccc(O)cc3)CCCCC2)cc1 [Bisphenol Z]	39.8
COC(COC(N)=O)C1=C(N2CC2)C(=O)C(C)=C(N2CC2)C1=O (stereo not drawn) [Carboquone]	0.556
CC(=O)Nc1ccccc1O [2-Acetamidophenol]	> 90
CC(=O)[C@H]1CC[C@H]2[C@@H]3C=CC4=CC(=O)CC[C@@]4(C)[C@@H]3CC[C@]12C [Dydrogesterone]	> 20
Nc1nnc(-c2ccc([N+](=O)[O-])o2)o1 [2-Amino-5-(5-nitro-2-furyl)-1,3,4-oxadiazole]	59
CCCCS(=O)(=O)Cl [Butane-1-sulfonyl chloride]	> 90
CCN1C[C@]2(COC)[C@H](O)C[C@H](OC)[C@]34C1[C@H]([C@H](OC)[C@H]23)[C@]1(OC(C)=O)[C@H]2[C@@H](OC(=O)c3ccccc3)[C@](O)(C[C@H]24)[C@@H](OC)[C@@H]1O [Aconitine]	> 50
C=CCN1CC[C@]23CCCC[C@H]2[C@H]1Cc1ccc(O)cc13 [Levallorphan]	28.6
CCOCCn1c(N2CCCN(C)CC2)nc2ccccc21 [Emedastine difumarate]	> 50
CCn1c2ccccc2c2cc([N+](=O)[O-])ccc21 [9-Ethyl-3-nitro-9H-carbazole]	> 90
Nc1nc(Cl)nc2c1ncn2[C@@H]1O[C@H](CO)[C@@H](O)[C@@H]1F [Clofarabine]	0.263
CCCCOCCOCCOCCOCCO [3,6,9,12-Tetraoxahexadecan-1-ol]	> 90
O=C(O)c1nn(Cc2ccc(Cl)cc2Cl)c2ccccc12 [Lonidamine]	> 90
CCC1OCC(COc2ccc(Oc3ccccc3)cc2)O1 (stereo not drawn) [Diofenolan]	> 90
CC=O [Acetaldehyde]	3.09
CCCCCCCCCCCCCCCCC [Heptadecane]	> 90
CCCCS(=O)(=O)N[C@@H](Cc1ccc(OCCCCC2CCNCC2)cc1)C(=O)O [Tirofiban hydrochloride monohydrate]	> 50
CC(CC=O)c1ccccc1 (stereo not drawn) [3-Phenylbutyraldehyde]	> 90
O=C(O)CCNC(=O)c1ccccc1 [Betamipron]	> 50
c1cc2c(c(NC3=NCCN3)c1)CCCC2 [Tramazoline tosylate]	> 50
c1ccc2c(c1)Oc1ccccc1S2 [Phenoxathiin]	> 90
O=C1OC2(c3ccccc31)c1cc(Br)c(O)c(Br)c1Oc1c2cc(Br)c(O)c1Br [2',4',5',7'-Tetrabromofluorescein]	5.55

same assay, conditions: rat, gh3-tre-luc cells, AC50 (uM) modified / 1000, Tox21_110001=Tox21_111257; viability, 1 nM T3 present, 24 h

SMILES	CC50 at 24 h [µM]
CNC(=O)OCC[N+](C)(C)C [Methylcarbamylcholine chloride]	> 50

same assay, conditions: rat, gh3-tre-luc cells, AC50 (uM) modified / 1000, Tox21_110001=Tox21_111751; viability, 1 nM T3 present, 24 h

SMILES	CC50 at 24 h [µM]
COC1=CC=C2[C@H]3Cc4ccc(OC)c5c4[C@@]2(CCN3C)[C@H]1O5 [Thebaine]	> 20

same assay, conditions: rat, gh3-tre-luc cells, AC50 (uM) modified / 1000, Tox21_110001=Tox21_111832; viability, 1 nM T3 present, 24 h

SMILES	CC50 at 24 h [µM]
c1ccc(C2(N3CCCC3)CCCCC2)cc1 [Rolicyclidine]	14.9

same assay, conditions: rat, gh3-tre-luc cells, AC50 (uM) modified / 1000, Tox21_110001=Tox21_111946; viability, 1 nM T3 present, 24 h

SMILES	CC50 at 24 h [µM]
COP(=S)(OC)Oc1ccc(S(=O)(=O)N(C)C)cc1 [Famphur]	> 50

same assay, conditions: rat, gh3-tre-luc cells, AC50 (uM) modified / 1000, Tox21_110001=Tox21_112058; viability, 1 nM T3 present, 24 h

SMILES	CC50 at 24 h [µM]
O[C@H]1[C@H]2[C@H](O)CCCN2C[C@H]1O [Swainsonine]	> 50

same assay, conditions: rat, gh3-tre-luc cells, AC50 (uM) modified / 1000, Tox21_110001=Tox21_112103; viability, 1 nM T3 present, 24 h

SMILES	CC50 at 24 h [µM]
O=c1n(Cl)c(=O)n(Cl)c(=O)n1Cl [Symclosene]	> 50

same assay, conditions: rat, gh3-tre-luc cells, AC50 (uM) modified / 1000, Tox21_110001=Tox21_112863; viability, 1 nM T3 present, 24 h

SMILES	CC50 at 24 h [µM]
COC1=CC=C2[C@H]3Cc4ccc(OC)c5c4[C@@]2(CCN3C)[C@H]1O5 [Thebaine]	> 90

same assay, conditions: rat, gh3-tre-luc cells, AC50 (uM) modified / 1000, Tox21_110001=Tox21_200822; viability, 1 nM T3 present, 24 h

SMILES	CC50 at 24 h [µM]
C[N+](=O)[O-] [Nitromethane]	> 90

same assay, conditions: rat, gh3-tre-luc cells, AC50 (uM) modified / 1000, Tox21_110001=Tox21_300858; viability, 1 nM T3 present, 24 h

SMILES	CC50 at 24 h [µM]
O=c1n(Cl)c(=O)n(Cl)c(=O)n1Cl [Symclosene]	> 90

same assay, conditions: rat, gh3-tre-luc cells, AC50 (uM) modified / 1000, Tox21_110001=Tox21_301907; viability, 1 nM T3 present, 24 h

SMILES	CC50 at 24 h [µM]
COP(=S)(OC)Oc1ccc(S(=O)(=O)N(C)C)cc1 [Famphur]	> 90

same assay, conditions: rat, gh3-tre-luc cells, AC50 (uM) modified / 1000, Tox21_110001=Tox21_302046; viability, 1 nM T3 present, 24 h

SMILES	CC50 at 24 h [µM]
CCCCCCCCCCCCBr [1-Bromododecane]	> 90
